# Test results published in article PMC2651907, “ARC (NSC 188491) has identical activity to Sangivamycin (NSC 65346) including inhibition of both P-TEFb and PKC” (2009).
# Target: T1, P-TEFb (cdk9/cyclin T1) (Homo sapiens, UniProt P50750)
# T1 construct: recombinant P-TEFb (cdk9/cyclin T1); with cyclin T1
# Assay: […]-ATP kinase assay with PDKtide, recombinant P-TEFb
# Format: biochemical
# T1 sequence (P50750 whole entry): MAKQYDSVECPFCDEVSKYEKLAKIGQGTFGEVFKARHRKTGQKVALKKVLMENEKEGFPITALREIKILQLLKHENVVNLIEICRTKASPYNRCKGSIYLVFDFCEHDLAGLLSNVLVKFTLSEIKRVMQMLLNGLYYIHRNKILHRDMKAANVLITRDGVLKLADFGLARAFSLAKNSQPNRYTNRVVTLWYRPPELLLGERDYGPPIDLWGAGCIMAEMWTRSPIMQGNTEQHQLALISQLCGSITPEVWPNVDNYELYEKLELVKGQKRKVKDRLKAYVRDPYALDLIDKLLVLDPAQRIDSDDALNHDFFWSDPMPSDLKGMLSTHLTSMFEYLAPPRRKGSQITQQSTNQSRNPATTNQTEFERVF
# T1 sequence (O60563 whole entry partner): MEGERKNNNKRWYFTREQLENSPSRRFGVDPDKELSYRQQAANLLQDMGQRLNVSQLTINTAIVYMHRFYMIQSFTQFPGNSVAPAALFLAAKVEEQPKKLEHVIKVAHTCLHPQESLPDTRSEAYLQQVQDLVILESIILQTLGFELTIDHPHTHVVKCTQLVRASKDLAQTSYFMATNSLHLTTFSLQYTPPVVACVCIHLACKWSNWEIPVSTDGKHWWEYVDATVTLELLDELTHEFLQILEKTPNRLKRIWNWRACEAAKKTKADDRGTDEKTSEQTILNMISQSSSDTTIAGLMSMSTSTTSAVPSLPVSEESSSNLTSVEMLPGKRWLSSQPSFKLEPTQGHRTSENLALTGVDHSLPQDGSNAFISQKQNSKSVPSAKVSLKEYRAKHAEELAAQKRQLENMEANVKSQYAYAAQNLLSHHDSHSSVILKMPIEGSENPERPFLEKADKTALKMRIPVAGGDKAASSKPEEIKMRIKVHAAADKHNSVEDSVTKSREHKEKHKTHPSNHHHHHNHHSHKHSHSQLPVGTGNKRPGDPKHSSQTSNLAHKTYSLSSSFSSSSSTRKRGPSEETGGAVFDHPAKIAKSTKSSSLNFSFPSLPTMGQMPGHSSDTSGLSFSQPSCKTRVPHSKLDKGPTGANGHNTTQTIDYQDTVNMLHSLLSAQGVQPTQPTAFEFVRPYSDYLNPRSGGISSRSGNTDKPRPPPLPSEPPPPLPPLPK
row,SMILES,"32P-ATP kinase assay with PDKtide, recombinant P-TEFb"
1,"NNc1c(C(N)=O)c2c(N)ncnc2n1[C@@H]1O[C@H](CO)[C@@H](O)[C@H]1O [ARC, 4-amino-6-hydrazino-7-β-d-ribofuranosyl-7H-pyrrolo-(2,3-d)-pyrimidine-5-carboxamide]",ARC sangivamycin and toyocamycin prevent recombinant P-TEFb from phosphorylating substrate peptide (Fig. 4E)
2,NC(=O)c1cn([C@@H]2O[C@H](CO)[C@@H](O)[C@H]2O)c2ncnc(N)c12 [sangivamycin],ARC sangivamycin and toyocamycin prevent recombinant P-TEFb from phosphorylating substrate peptide (Fig. 4E)
3,N#Cc1cn([C@@H]2O[C@H](CO)[C@@H](O)[C@H]2O)c2ncnc(N)c12 [toyocamycin],ARC sangivamycin and toyocamycin prevent recombinant P-TEFb from phosphorylating substrate peptide (Fig. 4E)
